Read-outs that look alike come from different tables or passages of the source.
Tested on: HEK293 cells
Test: HEK293 VLCFA-LPC IC50 determination (13C-labeled C26:0 LPC by UHPLC/MS)
Assay type: cell-based, human
Conditions: Homo sapiens
Summary of the method: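 Suspension HEK293 cells (final 0.5 million/mL after mixing with equal volume) incubated 48 hours with compound plus 13C-acetate (1.0 mg/mL in added media), shaking at 37° C. Lipids extracted with hexane/isopropanol or methanol, C13:0 LPC standard. UHPLC/MS of 13C-labeled C26:0 LPC (638.500/104.100 m/z); IC50 by four-parameter fit.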

Structure (SMILES): O=C(Nc1ccn(-c2ccnc(F)c2)n1)C1(c2ccccc2F)CC1 [Compound 87, 1-(2-fluorophenyl)-N-[1-(2-fluoro-4-pyridyl)pyrazol-3-yl]cyclopropanecarboxamide]
- IC50 (HEK293, 48 h, HEK293, half maximal reduction in C26:0 LPC, about 48 hours, read-out: IC50): 8 nM
- IC50 (HEK293, HEK293 cells, average of one or more replicates, read-out: Average HEK293 IC50): 13 nM

— patent US20180251431A1 (VERTEX PHARMACEUTICALS INCORPORATED, priority 2016, published 2018)
